Literature values, collected in patent US10202400B2, “Cortistatin analogues and syntheses thereof” (President and Fellows of Harvard College, priority 2008, dated 2019).
Converted amounts (≈) assume the structure as drawn.

Experiments:
[1] = tested on: several human and murine cancer cell lines and one normal human dermal fibroblast cell line (KB3-1, Neuro2A, K562, NHDF)
[2] = tested on: HUVECs
[3] = tested on: human umbilical vein endothelial cells (HUVECs)
[4] = tested on: HUVEC
[5] = tested on: human nasopharynx carcinoma (KB) cells

| Compound | GI50 [1] [µM] | tubular formation in HUVECs [2] | GI50 [3] [µM] | HUVEC cellular migration [4] | ED50 [5] [µg/mL] |
| --- | --- | --- | --- | --- | --- |
| CN(C)[C@H]1C[C@@]23CC[C@@]4(O2)C(=CC[C@]2(C)[C@@H](c5ccc6ccncc6c5)CC[C@H]24)C=C3[C@@H](O)[C@@H]1O [Cortistatin A, cortistatin A] | 6 to 7 | inhibits tubular formation | 0.00018 | inhibits HUVEC cellular migration | – |
| CN[C@@H](C)[C@H]1CC[C@H]2[C@@H]3CC[C@@H]4C(=CC3=CC[C@]12C)CC[C@H](NC)C4(C)C [buxenine G] | – | – | – | – | 0.4 (≈ 1.08 µM) |
